Blank lines part the entries; values can stand above or below the compound they belong to.
How the values were obtained:
[1] = target: Serine/threonine-protein kinase 32A (Homo sapiens) (UniProt Q8WU08); assay: Inhibition of human recombinant YANK1 at 500 nM related to control ULK1
[2] = target: Insulin receptor-related protein (Homo sapiens) (UniProt P14616); assay: Inhibition of human recombinant IRR at 500 nM in presence of ATP by radiometric assay relative to control
[3] = target: Ephrin type-A receptor 4 (Homo sapiens) (UniProt P54764); assay: Inhibition of human recombinant EphA4 at 500 nM related to control ULK1
Ephrin type-A receptor 4 (Homo sapiens), sequence (P54764 whole entry): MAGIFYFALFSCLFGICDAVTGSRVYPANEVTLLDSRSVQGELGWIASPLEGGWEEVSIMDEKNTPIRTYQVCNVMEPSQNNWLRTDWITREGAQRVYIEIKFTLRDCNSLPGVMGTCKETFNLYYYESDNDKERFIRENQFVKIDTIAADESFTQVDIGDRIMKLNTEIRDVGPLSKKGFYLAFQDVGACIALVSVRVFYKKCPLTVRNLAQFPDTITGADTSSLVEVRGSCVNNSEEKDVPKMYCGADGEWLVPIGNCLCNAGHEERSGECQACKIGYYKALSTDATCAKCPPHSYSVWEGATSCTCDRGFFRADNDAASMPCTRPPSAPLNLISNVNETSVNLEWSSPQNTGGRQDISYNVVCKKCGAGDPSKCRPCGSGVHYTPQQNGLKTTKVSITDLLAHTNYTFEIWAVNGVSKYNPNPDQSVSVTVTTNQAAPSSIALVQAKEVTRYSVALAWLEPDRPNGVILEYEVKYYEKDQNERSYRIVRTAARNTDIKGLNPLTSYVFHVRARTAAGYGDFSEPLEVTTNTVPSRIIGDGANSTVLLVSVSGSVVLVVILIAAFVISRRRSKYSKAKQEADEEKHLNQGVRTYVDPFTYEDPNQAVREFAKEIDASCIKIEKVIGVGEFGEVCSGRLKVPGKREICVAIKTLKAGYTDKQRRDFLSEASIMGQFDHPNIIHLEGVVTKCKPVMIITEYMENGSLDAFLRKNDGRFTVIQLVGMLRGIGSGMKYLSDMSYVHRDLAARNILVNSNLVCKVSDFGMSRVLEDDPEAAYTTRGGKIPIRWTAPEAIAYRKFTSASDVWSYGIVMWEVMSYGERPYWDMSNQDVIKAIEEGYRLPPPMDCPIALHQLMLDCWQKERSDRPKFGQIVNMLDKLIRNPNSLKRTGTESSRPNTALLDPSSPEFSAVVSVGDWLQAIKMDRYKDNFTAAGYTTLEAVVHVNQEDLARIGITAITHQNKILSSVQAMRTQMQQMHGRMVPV

[4] = target: Dual specificity protein kinase CLK2 (Homo sapiens) (UniProt P49760); assay: Inhibition of human recombinant CLK2 at 500 nM in presence of ATP by radiometric assay relative to control
Dual specificity protein kinase CLK2 (Homo sapiens), sequence (P49760 whole entry, looked up): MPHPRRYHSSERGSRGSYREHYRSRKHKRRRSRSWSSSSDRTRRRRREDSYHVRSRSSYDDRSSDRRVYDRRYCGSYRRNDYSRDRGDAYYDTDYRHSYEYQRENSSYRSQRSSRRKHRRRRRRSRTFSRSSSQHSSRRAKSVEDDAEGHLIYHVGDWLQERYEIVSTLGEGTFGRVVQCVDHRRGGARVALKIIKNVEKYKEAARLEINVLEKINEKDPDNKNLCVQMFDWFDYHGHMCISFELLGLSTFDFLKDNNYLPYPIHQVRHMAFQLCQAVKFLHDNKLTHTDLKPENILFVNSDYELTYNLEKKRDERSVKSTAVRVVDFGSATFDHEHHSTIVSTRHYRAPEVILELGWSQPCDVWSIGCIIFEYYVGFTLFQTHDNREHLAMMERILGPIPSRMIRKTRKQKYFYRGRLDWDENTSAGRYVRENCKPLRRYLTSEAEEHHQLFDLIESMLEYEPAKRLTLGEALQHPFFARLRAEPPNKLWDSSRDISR

[5] = target: Mitogen-activated protein kinase 8 (Homo sapiens) (UniProt P45983); assay: Inhibition of human recombinant JNK1 at 500 nM related to control ULK1
[6] = target: T1, Dual specificity tyrosine-phosphorylation-regulated kinase 2 (Homo sapiens) (UniProt Q92630); assay: Inhibition of human recombinant DYRK2 at 15 nM related to control ULK1
T1 sequence (whole entry): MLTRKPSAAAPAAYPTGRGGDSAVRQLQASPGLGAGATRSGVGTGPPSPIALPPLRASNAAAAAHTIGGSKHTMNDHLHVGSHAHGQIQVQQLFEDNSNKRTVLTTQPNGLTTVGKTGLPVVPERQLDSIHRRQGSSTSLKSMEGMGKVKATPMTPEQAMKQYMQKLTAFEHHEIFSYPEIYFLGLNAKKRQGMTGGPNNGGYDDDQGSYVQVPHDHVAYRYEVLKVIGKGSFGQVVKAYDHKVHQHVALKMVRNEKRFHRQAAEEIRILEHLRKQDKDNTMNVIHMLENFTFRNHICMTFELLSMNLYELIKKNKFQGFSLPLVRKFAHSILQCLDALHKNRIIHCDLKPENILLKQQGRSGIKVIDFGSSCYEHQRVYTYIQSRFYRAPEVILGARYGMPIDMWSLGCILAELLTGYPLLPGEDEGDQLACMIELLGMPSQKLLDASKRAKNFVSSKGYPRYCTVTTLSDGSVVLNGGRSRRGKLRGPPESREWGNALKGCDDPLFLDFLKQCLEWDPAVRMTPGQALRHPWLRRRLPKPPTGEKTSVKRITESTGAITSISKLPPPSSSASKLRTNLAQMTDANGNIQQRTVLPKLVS

[7] = target: Serine/threonine-protein kinase PAK 2 (Homo sapiens) (UniProt Q13177); assay: Inhibition of human recombinant PAK2 at 15 nM in presence of ATP by radiometric assay relative to control
Serine/threonine-protein kinase PAK 2 (Homo sapiens), sequence (Q13177 whole entry): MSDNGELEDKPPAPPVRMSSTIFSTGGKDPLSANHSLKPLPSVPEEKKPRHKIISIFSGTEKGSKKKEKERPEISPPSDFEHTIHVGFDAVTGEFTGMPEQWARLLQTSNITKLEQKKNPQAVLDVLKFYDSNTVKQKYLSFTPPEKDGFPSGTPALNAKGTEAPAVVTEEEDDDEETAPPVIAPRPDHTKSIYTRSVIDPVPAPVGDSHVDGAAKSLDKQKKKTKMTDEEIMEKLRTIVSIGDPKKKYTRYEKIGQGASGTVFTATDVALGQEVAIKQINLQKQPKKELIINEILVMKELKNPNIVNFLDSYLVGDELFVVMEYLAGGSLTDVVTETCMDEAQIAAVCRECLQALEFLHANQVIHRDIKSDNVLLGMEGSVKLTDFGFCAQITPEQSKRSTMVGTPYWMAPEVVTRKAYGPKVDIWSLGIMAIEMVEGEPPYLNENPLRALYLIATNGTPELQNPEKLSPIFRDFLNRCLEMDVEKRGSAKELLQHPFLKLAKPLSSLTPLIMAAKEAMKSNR

[8] = target: 3-phosphoinositide-dependent protein kinase 1 (Homo sapiens) (UniProt O15530); assay: Inhibition of human recombinant PDK1 at 40 nM related to control ULK1
3-phosphoinositide-dependent protein kinase 1 (Homo sapiens), sequence (O15530 whole entry, looked up): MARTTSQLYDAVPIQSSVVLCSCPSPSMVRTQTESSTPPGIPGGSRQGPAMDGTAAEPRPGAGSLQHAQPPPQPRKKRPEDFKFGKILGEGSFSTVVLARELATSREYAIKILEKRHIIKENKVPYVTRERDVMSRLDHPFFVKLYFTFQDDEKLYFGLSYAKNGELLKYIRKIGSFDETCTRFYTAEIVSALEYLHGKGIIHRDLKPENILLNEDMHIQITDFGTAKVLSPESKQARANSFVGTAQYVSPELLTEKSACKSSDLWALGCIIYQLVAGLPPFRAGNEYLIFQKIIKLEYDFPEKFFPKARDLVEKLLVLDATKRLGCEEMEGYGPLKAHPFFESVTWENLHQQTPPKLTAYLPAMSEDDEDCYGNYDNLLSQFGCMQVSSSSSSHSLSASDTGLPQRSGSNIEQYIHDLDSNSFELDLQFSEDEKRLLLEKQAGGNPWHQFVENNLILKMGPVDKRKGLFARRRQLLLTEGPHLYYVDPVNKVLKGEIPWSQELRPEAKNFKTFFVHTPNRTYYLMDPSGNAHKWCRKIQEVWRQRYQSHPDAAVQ

[9] = target: T2, Mitogen-activated protein kinase kinase kinase 3 (Homo sapiens) (UniProt Q99759); assay: Inhibition of human recombinant MAP3K3 at 40 nM in presence of ATP by radiometric assay relative to control
T2 sequence (whole entry): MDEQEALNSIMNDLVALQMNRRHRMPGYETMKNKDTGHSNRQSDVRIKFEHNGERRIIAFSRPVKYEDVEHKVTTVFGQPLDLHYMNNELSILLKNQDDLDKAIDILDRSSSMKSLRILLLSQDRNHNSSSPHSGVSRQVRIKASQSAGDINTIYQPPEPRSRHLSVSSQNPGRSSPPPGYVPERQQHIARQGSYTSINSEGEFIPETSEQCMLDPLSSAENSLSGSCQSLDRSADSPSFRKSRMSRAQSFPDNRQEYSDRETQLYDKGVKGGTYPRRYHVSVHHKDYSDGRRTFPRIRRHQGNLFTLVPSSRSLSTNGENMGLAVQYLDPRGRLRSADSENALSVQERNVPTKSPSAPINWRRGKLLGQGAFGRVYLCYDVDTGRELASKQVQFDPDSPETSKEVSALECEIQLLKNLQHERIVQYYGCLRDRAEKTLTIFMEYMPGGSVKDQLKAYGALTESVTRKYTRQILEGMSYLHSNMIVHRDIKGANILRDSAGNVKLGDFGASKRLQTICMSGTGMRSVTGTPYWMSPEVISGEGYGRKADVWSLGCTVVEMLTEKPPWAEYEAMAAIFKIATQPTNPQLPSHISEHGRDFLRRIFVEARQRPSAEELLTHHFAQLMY

[10] = target: Tyrosine-protein kinase Lck (Homo sapiens) (UniProt P06239); assay: Inhibition of human recombinant LCK at 40 nM in presence of ATP by radiometric assay relative to control
Tyrosine-protein kinase Lck (Homo sapiens), sequence (P06239 2-509 limits assumed): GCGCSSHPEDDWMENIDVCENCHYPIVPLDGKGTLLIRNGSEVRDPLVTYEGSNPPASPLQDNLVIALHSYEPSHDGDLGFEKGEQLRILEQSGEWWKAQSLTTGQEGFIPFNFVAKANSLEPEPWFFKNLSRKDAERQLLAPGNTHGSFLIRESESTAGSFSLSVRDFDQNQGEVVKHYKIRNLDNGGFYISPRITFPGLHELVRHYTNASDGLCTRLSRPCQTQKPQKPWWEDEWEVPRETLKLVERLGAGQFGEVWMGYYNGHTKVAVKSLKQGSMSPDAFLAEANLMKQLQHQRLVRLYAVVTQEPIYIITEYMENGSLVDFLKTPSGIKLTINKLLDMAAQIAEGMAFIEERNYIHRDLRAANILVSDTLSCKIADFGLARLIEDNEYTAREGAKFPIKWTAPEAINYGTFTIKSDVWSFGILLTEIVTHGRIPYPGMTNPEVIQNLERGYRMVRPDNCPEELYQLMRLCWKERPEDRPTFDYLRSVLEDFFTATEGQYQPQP

[11] = target: T3, Serine/threonine-protein kinase ULK2 (Homo sapiens) (UniProt Q8IYT8); assay: Inhibition of human recombinant ULK2 at 40 nM in presence of ATP by radiometric assay relative to control
T3 sequence (whole entry): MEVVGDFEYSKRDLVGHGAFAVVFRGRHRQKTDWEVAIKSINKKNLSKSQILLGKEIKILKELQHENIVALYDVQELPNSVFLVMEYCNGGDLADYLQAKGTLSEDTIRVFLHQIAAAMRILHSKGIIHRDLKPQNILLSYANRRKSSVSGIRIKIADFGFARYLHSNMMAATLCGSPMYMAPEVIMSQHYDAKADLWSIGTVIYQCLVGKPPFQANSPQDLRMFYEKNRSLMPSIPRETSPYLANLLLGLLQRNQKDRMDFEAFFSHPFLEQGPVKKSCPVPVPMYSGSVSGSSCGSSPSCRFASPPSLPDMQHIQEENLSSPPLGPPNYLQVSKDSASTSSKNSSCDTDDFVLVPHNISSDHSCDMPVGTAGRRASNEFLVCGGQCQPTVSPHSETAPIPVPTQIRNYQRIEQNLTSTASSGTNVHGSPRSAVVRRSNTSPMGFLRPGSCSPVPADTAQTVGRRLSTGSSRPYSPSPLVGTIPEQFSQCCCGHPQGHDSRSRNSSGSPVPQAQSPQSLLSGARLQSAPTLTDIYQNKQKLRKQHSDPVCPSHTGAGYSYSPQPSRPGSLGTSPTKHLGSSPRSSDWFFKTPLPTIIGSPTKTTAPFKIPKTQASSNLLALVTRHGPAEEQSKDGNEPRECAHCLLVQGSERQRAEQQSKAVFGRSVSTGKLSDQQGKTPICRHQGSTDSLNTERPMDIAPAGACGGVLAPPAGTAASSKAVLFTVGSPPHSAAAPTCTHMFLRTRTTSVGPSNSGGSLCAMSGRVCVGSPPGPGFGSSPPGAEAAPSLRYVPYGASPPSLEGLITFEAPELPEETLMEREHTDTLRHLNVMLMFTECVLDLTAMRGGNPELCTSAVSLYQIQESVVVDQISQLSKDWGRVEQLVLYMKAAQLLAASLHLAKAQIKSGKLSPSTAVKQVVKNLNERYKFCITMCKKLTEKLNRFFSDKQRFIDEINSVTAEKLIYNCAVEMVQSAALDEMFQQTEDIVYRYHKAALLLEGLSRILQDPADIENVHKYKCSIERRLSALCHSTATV

Serine/threonine-protein kinase 32A (Homo sapiens), sequence (Q8WU08 whole entry): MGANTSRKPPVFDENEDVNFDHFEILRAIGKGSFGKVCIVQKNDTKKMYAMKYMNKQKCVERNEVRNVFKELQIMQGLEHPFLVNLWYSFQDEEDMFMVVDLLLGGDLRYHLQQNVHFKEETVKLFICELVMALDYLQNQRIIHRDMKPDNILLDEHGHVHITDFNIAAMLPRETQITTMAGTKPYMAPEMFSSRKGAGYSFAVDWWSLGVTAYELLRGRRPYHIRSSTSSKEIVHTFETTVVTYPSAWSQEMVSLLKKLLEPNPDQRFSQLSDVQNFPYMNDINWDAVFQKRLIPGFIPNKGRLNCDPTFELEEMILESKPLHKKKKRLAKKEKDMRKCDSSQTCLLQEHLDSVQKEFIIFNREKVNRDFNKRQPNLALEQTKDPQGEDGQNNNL
Insulin receptor-related protein (Homo sapiens), sequence (P14616 27-742 limits assumed): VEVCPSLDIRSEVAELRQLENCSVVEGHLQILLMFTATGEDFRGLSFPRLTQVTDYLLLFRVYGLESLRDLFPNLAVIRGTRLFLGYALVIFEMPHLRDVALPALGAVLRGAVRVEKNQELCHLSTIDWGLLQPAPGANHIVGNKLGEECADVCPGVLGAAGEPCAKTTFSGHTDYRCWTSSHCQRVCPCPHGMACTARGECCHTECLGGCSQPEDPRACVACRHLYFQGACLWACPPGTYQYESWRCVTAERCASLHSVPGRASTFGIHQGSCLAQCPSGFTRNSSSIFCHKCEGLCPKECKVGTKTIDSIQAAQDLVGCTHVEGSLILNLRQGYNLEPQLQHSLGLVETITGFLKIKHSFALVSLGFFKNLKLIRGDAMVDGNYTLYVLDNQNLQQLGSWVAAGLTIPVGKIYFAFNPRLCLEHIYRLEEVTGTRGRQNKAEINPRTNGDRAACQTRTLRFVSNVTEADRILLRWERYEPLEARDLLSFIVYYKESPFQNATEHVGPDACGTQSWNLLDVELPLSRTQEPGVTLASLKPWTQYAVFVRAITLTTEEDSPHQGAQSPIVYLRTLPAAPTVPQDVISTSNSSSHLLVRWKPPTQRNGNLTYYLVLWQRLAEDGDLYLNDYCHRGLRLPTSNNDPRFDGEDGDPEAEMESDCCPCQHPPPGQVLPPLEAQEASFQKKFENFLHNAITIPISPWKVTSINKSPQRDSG
Insulin receptor-related protein (Homo sapiens), sequence (P14616 747-1297 limits assumed): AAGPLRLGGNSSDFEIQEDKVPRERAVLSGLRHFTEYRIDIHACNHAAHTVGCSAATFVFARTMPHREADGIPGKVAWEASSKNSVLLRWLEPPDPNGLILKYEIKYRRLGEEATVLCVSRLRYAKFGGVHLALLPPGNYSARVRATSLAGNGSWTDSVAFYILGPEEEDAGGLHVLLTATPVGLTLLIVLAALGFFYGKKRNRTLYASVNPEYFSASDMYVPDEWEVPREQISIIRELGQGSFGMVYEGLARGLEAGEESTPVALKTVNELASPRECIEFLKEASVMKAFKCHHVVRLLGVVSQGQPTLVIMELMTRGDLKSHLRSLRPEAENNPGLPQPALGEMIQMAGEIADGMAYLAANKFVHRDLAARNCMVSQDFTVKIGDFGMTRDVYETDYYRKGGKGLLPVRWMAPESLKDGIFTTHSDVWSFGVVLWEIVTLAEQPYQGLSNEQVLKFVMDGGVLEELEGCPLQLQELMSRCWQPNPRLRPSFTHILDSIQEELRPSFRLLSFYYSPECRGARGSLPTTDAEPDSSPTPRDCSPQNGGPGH

fold change (FC) [1]: 0 | inhibition [2]: 9% | fold change (FC) [3]: 0.2 | inhibition [4]: 7% | fold change (FC) [5]: 0.01
SMILES: CNC(=O)c1ccccc1Oc1nc(Nc2cc(OC)c(OC)c(OC)c2)ncc1Br

fold change (FC) [6]: 0.09 | inhibition [7]: 0%
SMILES: CC(C)[C@H](NC(=O)c1cc(-c2cnn3cc(-c4ccc(OCCN5CCCCC5)cc4)cnc23)cs1)C(F)(F)F

fold change (FC) [8]: 0 | inhibition [9]: 0% | inhibition [10]: 0% | inhibition [11]: 46%
SMILES: O=C(N[C@@H](C1CC1)C(F)(F)F)c1cc(-c2cnn3cc(-c4ccc(F)cc4)cnc23)cs1
